Test results taken from patent US20040132095A1, “Method of selecting antimicrobial agent and method of using the same” (priority 2001, published 2004).

Columns and labels:
[1] = test system: Chaetomium elatum; experiment: Data base search for antimicrobial agent, filamentous fungus (Example 6); assay type: cell-based
[2] = test system: slime; experiment: Laboratory torque type slime formation testing apparatus, artificial white water (Example 1); assay type: cell-based
Description: A torque type slime formation testing apparatus was used, which is described in Japanese Patent Kokai Hei 9-75065 A. The testing apparatus is constructed from a stationary outer cylinder and a rotatable inner cylinder disposed concentrically with the outer cylinder leaving a free space therebetween for allowing flow of water therein while rotating the inner cylinder so as to permit to grow slime formed on the surface of the inner […]. To this testing apparatus, an artificial white water (containing 142 mg/liter of soluble starch and 11.6 mg/liter of ammonium sulfate and having a pH of 7.0) was supplied continuously at a temperature of 30° C. so as to maintain a residence time in the apparatus of 20 minutes, while adding thereto intermittently a slime control agent containing as the main component DBNPA (dibromonitrilopropionamide) three times a day each for a duration of 15 minutes at a contact concentration of 2.5 mg/liter. […] Each isolated strain was taken up on a platinum loop and was suspended in 0.4 ml of TE buffer solution (10 mM Tris-HCl, 1 mM EDTA, pH 8.0) retained allotted in a 1.5 ml microcentrifugal tube. Based on the above results, test experiment was carried out under the same experimental condition except that HPGHC was used as the slime control agent so as to maintain the concentration thereof in the system at 0.3 mg/liter. […] This HPGHC-treated slime collected at this occasion was tested by analysis of microbial biota thereof in the same manner as above, whereby Microbacterium sp. was not detected.

[3] = test system: Microbacterium sp. (microbe number 6354); experiment: Data base search for antimicrobial agent, confirmed by sterilizing experiment, dominant microbe of Example 1 slime; assay type: cell-based
[4] = test system: all the other isolated bacteria; experiment: Data base search / sterilizing experiment, other isolated strains of Example 1 slime; assay type: cell-based; details: strains isolated from slime of Example 1
[5] = test system: Deinococcus geothermalis; experiment: Data base search and sterilizing experiment, Example 2; assay type: cell-based; details: data base search, confirmed by sterilizing experiment
[6] = test system: pink-colored bacterial slime / Deinococcus geothermalis; experiment: Slime control treatment at paper manufacturing factory D, white water circulation system (Example 2); details: slime formed during long term slime control with DBNPA based agent
[7] = test system: slime; experiment: Monitoring demonstrators (slime testers) at paper machine of factory D (Example 3)
Experimental: Since the machine construction is similar, this machine would suffer from same trouble by occurrence of pink-colored slime after a prolonged operation. Therefore, monitoring of machine by prior practice was proceeded more […] the same time, the analysis of the microbial biota of white water same as in the above test method was performed at a more frequent interval, namely, at an interval of 7-14 days (with increase in the number of isolated strains to 48). […] On the other hand, white water devoid of DBNPA content was reserved by storing in a storage reservoir the white water taken from its supply line during a time interval discrepant from the DBNPA injection period, to preserve a reagent-free white water for the test.

[8] = test system: Deinococcus geothermalis; experiment: Analysis of microbial biota of white water of the machine, factory D (Example 3); details: DBNPA treatment
Description: In the paper manufacturing factory D, another machine of a type similar to that used in Example 2 operating under conditions similar to those in Example 2 is installed adjacent to the machine of Example 2. In this machine, no occurrence of pink-colored […] recognized even at the occasion at which the pink-colored slime occurred in the machine of Example 2. Therefore, procedures corresponding to those in Example 1 were proceeded, wherein each 36 strains were isolated using agar medium and analysis of the microbial biota was carried out. Since a large number of strains are to be tested, each 16S rDNA obtained from each strain was treated by digestion with three kinds of restriction enzymes (BstUI, RsaI and HhaI) isolatedly to effect TRFLP analysis, in order to group preliminarily into classes of microbes of same reaction pattern, whereupon identification was effected based on the base sequence as identification parameter. It was recognized thereby that the occupation proportion of Deinococcus geothermalis in the isolated 36 strains was calculated to be only 2.7% (one strain). Since the machine construction is similar, this machine would suffer from same trouble by occurrence of pink-colored slime after a prolonged operation. […]

[9] = test system: microbe belonging to a genus Microbacterium (microbe number 2401); experiment: Data base search for antimicrobial agent, dominant microbe of yellow-colored slime (Example 4); assay type: cell-based
[10] = test system: Acidovorax temperans; experiment: Data base search and sterilizing experiment (Example 9); assay type: cell-based
[11] = test system: Gram-negative bacterium near-related to Riemerella; experiment: as above; assay type: cell-based
[12] = test system: Sphingomonas; experiment: as above; assay type: cell-based
[13] = test system: Rhizobium sp.; experiment: as above; assay type: cell-based
[14] = test system: Deinococcus geothermalis; experiment: as above; assay type: cell-based
[15] = test system: slime in CP tube; experiment: Slime control treatment of clear white water pit / CP line, paper machine Y (Example 11); details: intermittent introduction into the clear white water pit twice a day
Experimental: In a paper machine Y (a daily throughput of 410 tons, slightly coated paper, pH 7.5) of a paper manufacturing factory B, occurrence of light brown-colored defects having sizes of about 5 mm diameter was recognized frequently since 11th day from the start of operation, caused to result in cessation of operation. The defect portions were cut out from the paper and three cut out pieces (about 8.1 mg) were cut into 2 mm squares, which were placed in a 2 ml microcentrifugal tube made of plastic material. To this tube, 1 ml of a DNA-extracting buffer solution (100 mM Tris-Cl, 100 mM EDTA-Na, 100 mM Na2HPO4 and 1.5 M NaCl (pH 8.0)) was added, followed by standing still at room temperature for 30 minutes to cause the paper pieces to be impregnated sufficiently with the solution.
From the above analysis results, it was assumed that the defect was caused by introduction of the slime formed in CP tube into the papermaking process course upon detachment or the like. In the CP line, clear white water obtained by treating white water through a polydiscfilter was used, which had hitherto not been subjected to a slime control treatment. Therefore, treatment was now applied by intermittent introduction of a slime control agent containing as the main component 2,2-dibromo-3-nitrilopropionamide into the clear white water pit twice a day.

[16] = test system: Deinococcus geothermalis; experiment: Origin treatment of wet broke chest in paper manufacturing process, Deinococcus geothermalis among 48 isolated strains (Example 9)
Experimental: (§1) Samples were collected at various locations in the paper manufacturing process courses and, for each of them, total microbe cell count was measured by microscope direct count method after staining with DAPI, whereupon 48 strains were isolated by agar plate culture to determine the proportion of existence of Deinococcus geothermalis among the 48 strains based on the base sequence of 16S rDNA. Based on the results of the search for slime conrol agent, the treatment scheme was revised to the operation in which a slime control agent containing HPGHC as the effective component is added as the origin treating agent to the wet broke chest three times a day each at a dose rate of 25 milligrams per liter of the retained liquor (chest capacity), while supplying the white water circulation system with a slime control agent containing DBNPA as the effective component in the conventional manner. At the occasion of the second shut down after the revision of the treatment scheme and at an occasion directly before it, samples were collected at various locations in the paper manufacturing process courses, for which total microbe cell count and the proportion of existence of Deinococcus geothermalis were determined in the same way as the former practice. It was found thereby that the total microbe counts were unchanged and within the range of ordinary fluctuation, but Deinococcus geothermalis became undetectable.

[17] = test system: total microbe cells / slime; experiment: Origin treatment of wet broke chest in paper manufacturing process, total cell count and slime deposition (Example 9)
Experimental: as §1

[18] = test system: Ralstonia eutropha; assay type: cell-based; details: data base search
[19] = DBNPA 2 mg/l or even lower, contact time 30 minutes
[20] = after HPGHC origin treatment plus DBNPA
[21] = after HPGHC origin treatment plus DBNPA, Clear white water in clear white water pit
[22] = after HPGHC origin treatment plus DBNPA, Dry broke chest
[23] = after HPGHC origin treatment plus DBNPA, Wet broke chest
[24] = after HPGHC origin treatment plus DBNPA, White water in white water silo
[25] = second shut down after revision of the treatment scheme (HPGHC to wet broke chest plus DBNPA)

O=C(CBr)OCC=CCOC(=O)CBr [BBAB, 1,4-bis-(bromoacetoxy)-2-butene]
susceptibility of Chaetomium elatum [1]: non-susceptible

N#CC(Br)(Br)C(N)=O [DBNPA, 2,2-dibromo-3-nitrilopropionamide]
slime layer thickness ([2]; DBNPA 2.5 mg/liter contact concentration, three times a day for 15 minutes, 12 days, pH 7.0, 30° C.): 119 μm | resistance of Microbacterium sp. to the agent ([3]; data base search, confirmed by sterilizing experiment): resistance | susceptibility of all other isolated bacterium strains [4]: susceptible | resistance of Deinococcus geothermalis [5]: resistant | occupation proportion of Deinococcus geothermalis in the entire microbe population [6]: 46% | sign of growth of slime in demonstrator ([7]; fifth test cycle, 47th day, No. 3 demonstrator inorganic bromine compound, No. 1 and No. 2 demonstrators DBNPA): sign of growth of slime was recognized | deposited amount of slime in No. 2 demonstrator ([7]; simulator supplied with DBNPA-containing agent, after the change of the machine agent): increased gradually | occurrence of pink-colored slime in No. 2 demonstrator ([7]; simulator supplied with DBNPA-containing agent, day after the change of the antimicrobial agent): visually recognized on the 14th day | occupation proportion of Deinococcus geothermalis ([8]; fifth test cycle on the 47th day, 6 of 48 strains): 12.5% | occupation proportion of Deinococcus geothermalis ([8]; up to the fourth test cycles, 48 strains): 2-4% | resistance of dominant microbe (microbe number 2401) [9]: resistance | susceptibility of Chaetomium elatum [1]: non-susceptible | living microbe cells extinct [10, 19]: 99% | susceptibility of Acidovorax temperans ([10]; data base search): susceptible | living microbe cells extinct [11, 19]: 99% | susceptibility of Gram-negative bacterium near-related to Riemerella ([11]; data base search): susceptible | living microbe cells extinct [12, 19]: 99% | susceptibility of Shingomonas ([12]; data base search): susceptible | living microbe cells extinct [13, 19]: 99% | susceptibility of Rhizobium Sp. ([13]; data base search): susceptible | sterilization of Deinococcus geothermalis ([14]; DBNPA 30 mg/l for 30 minutes): completely not sterilized | resistance of Deinococcus geothermalis ([14]; data base search): resistant | occurrence of defect on paper [15]: removed | occurrence of slime formation in the CP tube [15]: decreased remarkably

O=C(C(Cl)=NO)c1ccc(O)cc1 [HPGHC, 2-(p-hydroxyphenyl)glyoxylohydroximoyl chloride]
Microbacterium sp. in treated slime (analysis of microbial biota) ([2]; HPGHC 0.3 mg/liter): not detected | amount of cling substance ([2]; HPGHC 0.3 mg/liter): remarkably decreased | slime thickness ([2]; HPGHC maintained at 0.3 mg/liter in the system, same test period (12 days)): 3 μm | minimum effective concentration ([3]; from data base for search for antimicrobial agent): 0.2 mg/L | susceptibility of all other isolated bacterium strains [4]: susceptible | sterilization of Deinococcus geothermalis ([14]; HPGHC system internal concentration 20 mg/l for 20 minutes, data base): sterilized | Deinococcus geothermalis in cling substance from the suction box [16, 20]: no Deinococcus geothermalis detected | Number of strains of Deinococcus geothermal is (number of colonies among 48 strains) [16, 21]: 0 | Number of strains of Deinococcus geothermal is (number of colonies among 48 strains) [16, 22]: 0 | Number of strains of Deinococcus geothermal is (number of colonies among 48 strains) [16, 23]: 0 | Number of strains of Deinococcus geothermal is (number of colonies among 48 strains) [16, 24]: 0 | Deinococcus geothermalis in samples from process courses [16, 25]: undetectable | amount of deposition of slime ([17]; HPGHC 25 mg per liter to wet broke chest three times a day plus DBNPA to white water circulation system): reduced considerably | total microbe cell count in cling substance from the suction box [17, 20]: 3.5×10^9 cells per one gram of dry substance | Total cell count [17, 21]: 3.1 × 10^7 cells/ml | Total cell count [17, 22]: 6.0 × 10^7 cells/ml | Total cell count [17, 23]: 5.3 × 10^7 cells/ml | Total cell count [17, 24]: 4.8 × 10^7 cells/ml | total microbe counts [17, 25]: unchanged

OCl [sodium hypochlorite]
ranking of effectiveness for registered Ralstonia eutropha [18]: most effective
